Read-outs that look alike come from different tables or passages of the source.
Key:
Pyrenophora teres = test: Host plant efficacy assay (barley); type: in vivo
Cladosporium carpophilum = test: In vitro growth on cervinomycin-amended growth media; type: cell-based
Alternaria solani = test: Host plant efficacy assay (tomato); type: in vivo
Erysiphe diffusa = test: Host plant efficacy assay (soybean); type: in vivo
Cochliobolus miyabeanus = test: In vitro growth on cervinomycin-amended growth media; type: cell-based
Ustilago maydis = test: as above; type: cell-based
Plasmospora viticola = test: Efficacy on grape plants infected with Plasmospora viticola; settings: for % control Plasmospora viticola 1DAI: 1 day after infection; for % control Plasmospora viticola 1DAI / % control Plasmospora viticola 7DBI / % control Plasmospora viticola 1DB1: grape plants; for % control Plasmospora viticola 7DBI: 7 days before infection; for % control Plasmospora viticola 1DB1: 1 day before infection
Text: Treatments occurred at either 1 day before infection (“1 DBI”), 7 days before infection (“7 DBI”) or 1 day after infection (“1 DAI”).

[1] = tested on: Pseudoperonospora cubensis; test: Foliar application, inoculated plants, disease severity; settings: for Disease severity P. cubensis Oct. 20, 2020: carrier control severity 70; for Disease severity P. cubensis Oct. 27, 2020: carrier control severity 79; for Disease severity P. cubensis Jul. 28, 2020: carrier control severity 67
Experimental: (§1) Biological efficacy assays utilizing cervinomycins were conducted on Pseudoperonospora cubensis and Botrytis cinerea. […] Once plants had dried they were inoculated with the pathogen, then were stored in a controlled climate chamber under high humidity for 4-6 days. At the end of the experiment disease severity was determined based on the percentage of plant tissue that was visually symptomatic.

Rhynchosporium secalis = test: In vitro growth on cervinomycin-amended growth media; type: cell-based
[2] = tested on: Pseudoperonospora cubensis; test: Host plant efficacy assay (cucumber); type: in vivo
Magnaporthe oryzae = type: in vivo
Puccinia triticina = test: Host plant efficacy assay (wheat); type: in vivo
Fusarium graminearum = type: cell-based
[3] = tested on: Pseudoperonospora cubensis; test: Field and greenhouse trials (cucumber, squash); type: in vivo; settings: P. cubensis
Zymoseptoria tritici = test: In vitro growth on cervinomycin-amended growth media; type: cell-based
Pythium ultimum = test: as above; type: cell-based
Sclerotinia sclerotiorum = test: Host plant efficacy assay (common bean); type: in vivo
Botrytis cinerea = test: Foliar application, inoculated plants, disease severity; settings: for Disease severity B. cinerea: carrier control severity 63.3; for percent control B. cinerea: vs carrier control
Experimental: as §1

Phakopsora pachyrhizi = test: Host plant efficacy assay (soybean); type: in vivo
Phytophthora capsici = test: In vitro growth on cervinomycin-amended growth media; type: cell-based
Phytophthora infestans = type: in vivo
[4] = 1 ppm foliar, vs carrier control
[5] = 3 ppm foliar, vs carrier control
[6] = 6 ppm foliar, vs carrier control
[7] = 12 ppm foliar, vs carrier control
[8] = 25 ppm foliar, vs carrier control
[9] = 30 ppm foliar, vs carrier control
[10] = 50 ppm foliar, vs carrier control
[11] = 500 ppm A2, untreated severity 34
[12] = 1000 ppm A2, untreated severity 34
[13] = 1500 ppm A2, untreated severity 34

## COc1cc2oc3c(c(=O)c2cc1OC)C(=O)c1c(ccc2cc4c(c(O)c12)C(=O)N1CCOC1(C)C4)C3=O (stereo not drawn) [Cervinomycin A2, cervinomycin A2]
Pyrenophora teres; 11.3 ppm
  % control Pyrenophora teres Barley 1DBI: 0 (0 (about 0%))
Pyrenophora teres; 45 ppm
  % control Pyrenophora teres Barley 1DBI: 0 (0 (about 0%))
Pyrenophora teres; 180 ppm
  % control Pyrenophora teres Barley 1DBI: 0 (0 (about 0%))
Cladosporium carpophilum; 0.004 ppm in growth media
  % Control Cladosporium carpophilum: 0%
Cladosporium carpophilum; 0.016 ppm in growth media
  % Control Cladosporium carpophilum: 0%
Cladosporium carpophilum; 0.063 ppm in growth media
  % Control Cladosporium carpophilum: 46%
Cladosporium carpophilum; 0.25 ppm in growth media
  % Control Cladosporium carpophilum: 99%
Cladosporium carpophilum; 1 ppm in growth media
  % Control Cladosporium carpophilum: 99%
Alternaria solani; 11.3 ppm
  % control Alternaria solani Tomato 1DBI: 0 (0 (about 0%))
Alternaria solani; 45 ppm
  % control Alternaria solani Tomato 1DBI: 0 (0 (about 0%))
Alternaria solani; 180 ppm
  % control Alternaria solani Tomato 1DBI: 0 (0 (about 0%))
Erysiphe diffusa; 11.3 ppm
  % control Erysiphe diffusa Soybean 2DAI: 0 (0 (about 0%))
Erysiphe diffusa; 45 ppm
  % control Erysiphe diffusa Soybean 2DAI: 0 (0 (about 0%))
Erysiphe diffusa; 180 ppm
  % control Erysiphe diffusa Soybean 2DAI: 0 (0 (about 0%))
Cochliobolus miyabeanus; 0.004 ppm in growth media
  % Control Cochliobolus miyabeanus: 0%
Cochliobolus miyabeanus; 0.016 ppm in growth media
  % Control Cochliobolus miyabeanus: 20%
Cochliobolus miyabeanus; 0.063 ppm in growth media
  % Control Cochliobolus miyabeanus: 49%
Cochliobolus miyabeanus; 0.25 ppm in growth media
  % Control Cochliobolus miyabeanus: 73%
Cochliobolus miyabeanus; 1 ppm in growth media
  % Control Cochliobolus miyabeanus: 87%
Ustilago maydis; 0.004 ppm in growth media
  % Control Ustilago maydis: 6%
Ustilago maydis; 0.016 ppm in growth media
  % Control Ustilago maydis: 12%
Ustilago maydis; 0.063 ppm in growth media
  % Control Ustilago maydis: 90%
Ustilago maydis; 0.25 ppm in growth media
  % Control Ustilago maydis: 100%
Ustilago maydis; 1 ppm in growth media
  % Control Ustilago maydis: 100%
Plasmospora viticola; 13-800 ppm
  control of P. viticiola (summary of Table 1): significant control
Plasmospora viticola; 13 ppm
  % control Plasmospora viticola 1DAI: 0%
  % control Plasmospora viticola 7DBI: 61%
Plasmospora viticola; 50 ppm
  % control Plasmospora viticola 1DB1: 100%
  % control Plasmospora viticola 7DBI: 91%
Plasmospora viticola; 200 ppm
  % control Plasmospora viticola 1DAI: 0%
  % control Plasmospora viticola 1DB1: 100%
Plasmospora viticola; 800 ppm
  % control Plasmospora viticola 1DAI: 5%
  % control Plasmospora viticola 1DB1: 100%
  % control Plasmospora viticola 7DBI: 100%
[1]; 1 ppm foliar
  Disease severity P. cubensis Oct. 20, 2020: 52%
  Disease severity P. cubensis Oct. 27, 2020: 7%
[1]; [4]
  percent control P. cubensis Oct. 20, 2020: (26%)
  percent control P. cubensis Oct. 27, 2020: 91%
[1]; 3 ppm foliar
  Disease severity P. cubensis Oct. 20, 2020: 27%
  Disease severity P. cubensis Oct. 27, 2020: 7%
[1]; [5]
  percent control P. cubensis Oct. 20, 2020: (61%)
  percent control P. cubensis Oct. 27, 2020: 91%
[1]; 6 ppm foliar
  Disease severity P. cubensis Oct. 20, 2020: 16%
  Disease severity P. cubensis Oct. 27, 2020: 2%
[1]; [6]
  percent control P. cubensis Oct. 20, 2020: (77%)
  percent control P. cubensis Oct. 27, 2020: 98%
[1]; 12 ppm foliar
  Disease severity P. cubensis Oct. 20, 2020: 3%
  Disease severity P. cubensis Oct. 27, 2020: 1%
[1]; [7]
  percent control P. cubensis Oct. 20, 2020: (95%)
  percent control P. cubensis Oct. 27, 2020: 99%
[1]; 15 ppm foliar
  Disease severity P. cubensis Jul. 28, 2020: 28%
[1]; 15 ppm foliar, vs carrier control
  percent control P. cubensis Jul. 28, 2020: 58%
[1]; 25 ppm foliar
  Disease severity P. cubensis Oct. 20, 2020: 4%
  Disease severity P. cubensis Oct. 27, 2020: 1%
[1]; [8]
  percent control P. cubensis Oct. 20, 2020: (94%)
  percent control P. cubensis Oct. 27, 2020: 99%
[1]; 30 ppm foliar
  Disease severity P. cubensis Jul. 28, 2020: 10%
[1]; 30 ppm foliar, carrier control severity 98
  Disease severity P. cubensis Jul. 14, 2020: 73%
[1]; [9]
  percent control P. cubensis Jul. 14, 2020: 26%
  percent control P. cubensis Jul. 28, 2020: 85%
[1]; 50 ppm foliar
  Disease severity P. cubensis Oct. 20, 2020: 7%
  Disease severity P. cubensis Oct. 27, 2020: 2%
[1]; [10]
  percent control P. cubensis Oct. 20, 2020: (89%)
  percent control P. cubensis Oct. 27, 2020: 98%
[1]; 60 ppm foliar
  Disease severity P. cubensis Jul. 28, 2020: 18%
[1]; 60 ppm foliar, vs carrier control
  percent control P. cubensis Jul. 28, 2020: 73%
[1]; foliar application
  control of Pseudoperonospora cubensis (summary of Table 3): significant control
Rhynchosporium secalis; 0.004 ppm in growth media
  % Control Rhynchosporium secalis: 21%
Rhynchosporium secalis; 0.016 ppm in growth media
  % Control Rhynchosporium secalis: 71%
Rhynchosporium secalis; 0.063 ppm in growth media
  % Control Rhynchosporium secalis: 98%
Rhynchosporium secalis; 0.25 ppm in growth media
  % Control Rhynchosporium secalis: 99%
Rhynchosporium secalis; 1 ppm in growth media
  % Control Rhynchosporium secalis: 100%
[2]; 11.3 ppm
  % control Pseudoperonospora cubensis Cucumber 1DBI: 0 (0 (about 0%))
[2]; 45 ppm
  % control Pseudoperonospora cubensis Cucumber 1DBI: 0 (0 (about 0%))
[2]; 180 ppm
  % control Pseudoperonospora cubensis Cucumber 1DBI: 3 (3 (about 70%))
Magnaporthe oryzae; 11.3 ppm
  % control Magnaporthe oryzae Rice 1DBI: 0 (0 (about 0%))
Magnaporthe oryzae; 45 ppm
  % control Magnaporthe oryzae Rice 1DBI: 0 (0 (about 0%))
Magnaporthe oryzae; 180 ppm
  % control Magnaporthe oryzae Rice 1DBI: 0 (0 (about 0%))
Puccinia triticina; 11.3 ppm
  % control Puccinia triticina Wheat 6DBI: 0 (0 (about 0%))
Puccinia triticina; 45 ppm
  % control Puccinia triticina Wheat 6DBI: 0 (0 (about 0%))
Puccinia triticina; 180 ppm
  % control Puccinia triticina Wheat 6DBI: 0 (0 (about 0%))
Fusarium graminearum; 0.004 ppm in growth media
  % Control Fusarium graminearum: 8%
Fusarium graminearum; 0.016 ppm in growth media
  % Control Fusarium graminearum: 4%
Fusarium graminearum; 0.063 ppm in growth media
  % Control Fusarium graminearum: 9%
Fusarium graminearum; 0.25 ppm in growth media
  % Control Fusarium graminearum: 0%
Fusarium graminearum; 1 ppm in growth media
  % Control Fusarium graminearum: 14%
[3]; [11]
  % Control: 27%
  Disease Severity: 25%
[3]; [12]
  % Control: 22%
  Disease Severity: 26%
[3]; [13]
  % Control: 44%
  Disease Severity: 19%
Zymoseptoria tritici; 0.004 ppm in growth media
  % Control Zymoseptoria tritici: 1%
Zymoseptoria tritici; 0.016 ppm in growth media
  % Control Zymoseptoria tritici: 2%
Zymoseptoria tritici; 0.063 ppm in growth media
  % Control Zymoseptoria tritici: 6%
Zymoseptoria tritici; 0.25 ppm in growth media
  % Control Zymoseptoria tritici: 62%
Zymoseptoria tritici; 1 ppm in growth media
  % Control Zymoseptoria tritici: 100%
Pythium ultimum; 0.004 ppm in growth media
  % Control Pythium ultimum: 0%
Pythium ultimum; 0.016 ppm in growth media
  % Control Pythium ultimum: 13%
Pythium ultimum; 0.063 ppm in growth media
  % Control Pythium ultimum: 99%
Pythium ultimum; 0.25 ppm in growth media
  % Control Pythium ultimum: 96%
Pythium ultimum; 1 ppm in growth media
  % Control Pythium ultimum: 99%
Sclerotinia sclerotiorum; 11.3 ppm
  % control Sclerotinia sclerotiorum Common bean 1DBI: 0 (0 (about 0%))
Sclerotinia sclerotiorum; 45 ppm
  % control Sclerotinia sclerotiorum Common bean 1DBI: 0 (0 (about 0%))
Sclerotinia sclerotiorum; 180 ppm
  % control Sclerotinia sclerotiorum Common bean 1DBI: 0 (0 (about 0%))
Botrytis cinerea; 1 ppm foliar
  Disease severity B. cinerea: 58%
  percent control B. cinerea: (9%)
Botrytis cinerea; 3 ppm foliar
  Disease severity B. cinerea: 45%
  percent control B. cinerea: (29%)
Botrytis cinerea; 6 ppm foliar
  Disease severity B. cinerea: 45%
  percent control B. cinerea: (29%)
Botrytis cinerea; 12 ppm foliar
  Disease severity B. cinerea: 30%
  percent control B. cinerea: (53%)
Botrytis cinerea; 25 ppm foliar
  Disease severity B. cinerea: 24%
  percent control B. cinerea: (63%)
Botrytis cinerea; 50 ppm foliar
  Disease severity B. cinerea: 9%
  percent control B. cinerea: (87%)
Botrytis cinerea; foliar application
  control of Botrytis cinerea (summary of Table 3): significant control
Phakopsora pachyrhizi; 11.3 ppm
  % control Phakopsora pachyrhizi Soybean 3DAI: 0 (0 (about 0%))
  % control Phakopsora pachyrhizi Soybean 4DBI: 0 (0 (about 0%))
Phakopsora pachyrhizi; 45 ppm
  % control Phakopsora pachyrhizi Soybean 3DAI: 0 (0 (about 0%))
  % control Phakopsora pachyrhizi Soybean 4DBI: 0 (0 (about 0%))
Phakopsora pachyrhizi; 180 ppm
  % control Phakopsora pachyrhizi Soybean 3DAI: 0 (0 (about 0%))
  % control Phakopsora pachyrhizi Soybean 4DBI: 2 (2 (about 50%))
Phytophthora capsici; 0.004 ppm in growth media
  % Control Phytophthora capsici: 4%
Phytophthora capsici; 0.016 ppm in growth media
  % Control Phytophthora capsici: 75%
Phytophthora capsici; 0.063 ppm in growth media
  % Control Phytophthora capsici: 90%
Phytophthora capsici; 0.25 ppm in growth media
  % Control Phytophthora capsici: 99%
Phytophthora capsici; 1 ppm in growth media
  % Control Phytophthora capsici: 100%
Phytophthora infestans; 11.3 ppm
  % control Phytophthora infestans Tomato 1DBI: 0 (0 (about 0%))
Phytophthora infestans; 45 ppm
  % control Phytophthora infestans Tomato 1DBI: 0 (0 (about 0%))
Phytophthora infestans; 180 ppm
  % control Phytophthora infestans Tomato 1DBI: 3 (3 (about 70%))

— patent US20240215582A1, “METHODS OF CONTROLLING PLANT PATHOGENS” (Valent BioSciences LLC, priority 2022, published 2024)
